From patent US9474790B2, “Stable, protracted GLP-1/glucagon receptor co-agonists for medical use” (Novo Nordisk A/S, priority 2013, dated 2016)
Numbered stars: 1 amine (or outer) side, 2 acyl side, 3 side chain; on linkers, the order of the positions; unused ones are H or OH. Bridge positions count the residues as written; N and C are the ends. Square brackets hold non-standard residues; d marks the D form. Side chains are listed from the residue outwards. Peptide text beside a SMILES is read from it. I, II: the chains in the order shown. * marks the point of attachment. C18 diacid = O=C(O)CCCCCCCCCCCCCCCCC(=O)*; γGlu = O=C(O)[C@H](CCC(=O)[*:2])N[*:1]; Ac4c = NC1(C(=O)O)CCC1; AEEA = NCCOCCOCC(=O)O; Aib = CC(C)(N)C(=O)O

Target: T1, human GLP-1 receptor (Homo sapiens, UniProt P43220)
T1 construct: expressed in transfected cells; host or cells: BHK cells (parent BHKTS13), clone FCW467-12A/KZ10-1, with CRE luciferase
Assay: GLP-1 receptor binding, 125I-GLP-1 displacement SPA on isolated membranes
Details: displacement of 125I-GLP-1 from membranes; read-out: IC50 GLP-1R
Summary of the method: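 Test derivatives, serially diluted, competed with 125I-GLP-1(7-36)NH2 for the human GLP-1 receptor on BHK membranes, read by WGA-bead scintillation proximity after 2 h at 30°C, pH 7.4 HEPES/EGTA/MgCl2 buffer. Final serum albumin was either ≤0.001% or 2.0%; IC50 from non-linear fit.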

T1 sequence (P43220 24-463): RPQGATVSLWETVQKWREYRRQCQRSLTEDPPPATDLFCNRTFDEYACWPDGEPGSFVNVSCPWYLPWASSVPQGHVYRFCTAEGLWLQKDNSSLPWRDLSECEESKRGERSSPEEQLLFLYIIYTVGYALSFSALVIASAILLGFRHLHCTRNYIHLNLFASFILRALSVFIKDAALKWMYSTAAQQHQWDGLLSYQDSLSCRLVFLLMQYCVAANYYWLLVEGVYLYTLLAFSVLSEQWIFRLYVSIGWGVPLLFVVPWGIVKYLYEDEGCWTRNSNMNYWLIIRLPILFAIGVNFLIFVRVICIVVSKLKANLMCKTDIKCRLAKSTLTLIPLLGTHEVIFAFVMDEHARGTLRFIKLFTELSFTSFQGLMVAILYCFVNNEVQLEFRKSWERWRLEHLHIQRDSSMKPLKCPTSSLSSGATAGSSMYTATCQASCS

Row | IC50 [pM] | SMILES
1 | 300 | CC(C)C[C@H](NC(=O)[C@H](Cc1ccc(O)cc1)NC(=O)[C@H](CCCCN)NC(=O)[C@H](CO)NC(=O)[C@H](CC(C)C)NC(=O)[C@H](CC(=O)O)NC(=O)[C@H](CO)NC(=O)[C@@H](NC(=O)[C@H](Cc1ccccc1)NC(=O)[C@@H](NC(=O)CNC(=O)[C@H](CCC(N)=O)NC(=O)C1(NC(=O)[C@@H](N)Cc2c[nH]cn2)CCC1)[C@@H](C)O)[C@@H](C)O)C(=O)N[C@@H](CCC(=O)O)C(=O)N[C@@H](CO)C(=O)N[C@@H](CCCNC(=N)N)C(=O)N[C@@H](CCCNC(=N)N)C(=O)N[C@@H](C)C(=O)N[C@@H](CCCNC(=N)N)C(=O)N[C@@H](CCC(=O)O)C(=O)N[C@@H](Cc1ccccc1)C(=O)N[C@H](C(=O)N[C@@H](CCC(N)=O)C(=O)N[C@@H](Cc1c[nH]c2ccccc12)C(=O)N[C@@H](CC(C)C)C(=O)N[C@@H](CC(C)C)C(=O)N[C@@H](CCCCNC(=O)CC[C@H](NC(=O)CC[C@H](NC(=O)COCCOCCNC(=O)COCCOCCNC(=O)CC[C@H](NC(=O)CCCCCCCCCCCCCCCCC(=O)O)C(=O)O)C(=O)O)C(=O)O)C(=O)N[C@H](C(N)=O)[C@@H](C)O)C(C)C [Example 44, N^ε28-[(4S)-4-carboxy-4-[[(4S)-4-carboxy-4-[[2-[2-[2-[[2-[2-[2-[[(4S)-4-carboxy-4-(17-carboxyheptadecanoylamino)butanoyl]amino]ethoxy]ethoxy]acetyl]amino]ethoxy]ethoxy]acetyl]amino]butanoyl]amino]butanoyl]-[Acb2,Leu10,Glu15,Arg20,Glu21,Leu27,Lys28]-Glucagon amide] (H-H[Ac4c]QGTFTSDLSKYLESRRAREFVQWLLK([γGlu-γGlu-AEEA-AEEA-γGlu-C18 diacid])T-NH2; N-terminus assumed)
2 | 300 | CC(C)C[C@H](NC(=O)[C@H](Cc1ccc(O)cc1)NC(=O)[C@H](CCCCN)NC(=O)[C@H](CO)NC(=O)[C@H](CC(C)C)NC(=O)[C@H](CC(=O)O)NC(=O)[C@H](CO)NC(=O)[C@@H](NC(=O)[C@H](Cc1ccccc1)NC(=O)[C@@H](NC(=O)CNC(=O)[C@H](CCC(N)=O)NC(=O)C(C)(C)NC(=O)[C@@H](N)Cc1c[nH]cn1)[C@@H](C)O)[C@@H](C)O)C(=O)N[C@@H](CCC(=O)O)C(=O)N[C@@H](CO)C(=O)N[C@@H](CCCNC(=N)N)C(=O)N[C@@H](CCCNC(=N)N)C(=O)N[C@@H](C)C(=O)N[C@@H](CCCNC(=N)N)C(=O)N[C@@H](CCC(=O)O)C(=O)N[C@@H](Cc1ccccc1)C(=O)N[C@H](C(=O)N[C@@H](CCC(N)=O)C(=O)N[C@@H](Cc1c[nH]c2ccccc12)C(=O)N[C@@H](CC(C)C)C(=O)N[C@@H](CC(C)C)C(=O)N[C@@H](CCCCNC(=O)COCCOCCNC(=O)COCCOCCNC(=O)CC[C@H](NC(=O)CC[C@H](NC(=O)CC[C@H](NC(=O)CCCCCCCCCCCCCCCCC(=O)O)C(=O)O)C(=O)O)C(=O)O)C(=O)N[C@H](C(N)=O)[C@@H](C)O)C(C)C [Example 42, N^ε28-[2-[2-[2-[[2-[2-[2-[[(4S)-4-carboxy-4-[[(4S)-4-carboxy-4-[[(4S)-4-carboxy-4-(17-carboxyheptadecanoylamino)butanoyl]amino]butanoyl]amino]butanoyl]amino]ethoxy]ethoxy]acetyl]amino]ethoxy]ethoxy]acetyl]-[Aib2,Leu10,Glu15,Arg20,Glu21,Leu27,Lys28]-Glucagon amide] (H-H[Aib]QGTFTSDLSKYLESRRAREFVQWLLK([AEEA-AEEA-γGlu-γGlu-γGlu-C18 diacid])T-NH2; N-terminus assumed)
3 | 900 | CC(C)C[C@H](NC(=O)[C@H](Cc1c[nH]c2ccccc12)NC(=O)[C@H](C)NC(=O)[C@@H](NC(=O)[C@H](Cc1ccccc1)NC(=O)[C@H](CCC(=O)O)NC(=O)[C@H](CCCNC(=N)N)NC(=O)[C@H](C)NC(=O)[C@H](CCCNC(=N)N)NC(=O)[C@H](CCCNC(=N)N)NC(=O)[C@H](CCCCNC(=O)CC[C@H](NC(=O)COCCOCCNC(=O)COCCOCCNC(=O)CC[C@H](NC(=O)CC[C@H](NC(=O)CCCCCCCCCCCCCCCCC(=O)O)C(=O)O)C(=O)O)C(=O)O)NC(=O)[C@H](CC(=O)O)NC(=O)[C@H](CC(C)C)NC(=O)[C@H](Cc1ccc(O)cc1)NC(=O)[C@H](CCCCN)NC(=O)[C@H](CO)NC(=O)[C@H](CC(C)C)NC(=O)[C@H](CC(=O)O)NC(=O)[C@H](CO)NC(=O)[C@@H](NC(=O)[C@H](Cc1ccccc1)NC(=O)[C@@H](NC(=O)CNC(=O)[C@H](CCC(N)=O)NC(=O)C(C)(C)NC(=O)[C@@H](N)Cc1c[nH]cn1)[C@@H](C)O)[C@@H](C)O)C(C)C)C(=O)N[C@@H](CC(C)C)C(=O)N[C@@H](CC(N)=O)C(=O)N[C@H](C(N)=O)[C@@H](C)O [Example 19, N^ε29-[(4S)-4-carboxy-4-[[2-[2-[2-[[2-[2-[2-[[(4S)-4-carboxy-4-[[(4S)-4-carboxy-4-(17-carboxyheptadecanoylamino)butanoyl]amino]butanoyl]amino]ethoxy]ethoxy]acetyl]amino]ethoxy]ethoxy]acetyl]amino]butanoyl]-[Aib2,Leu10,Lys16,Arg20,Glu21,Ala24,Leu27]-Glucagon amide] (H-H[Aib]QGTFTSDLSKYLDK([γGlu-AEEA-AEEA-γGlu-γGlu-C18 diacid])RRAREFVAWLLNT-NH2; N-terminus assumed)
4 | 200 | CC(C)C[C@H](NC(=O)[C@H](Cc1ccc(O)cc1)NC(=O)[C@H](CCCCN)NC(=O)[C@H](CO)NC(=O)[C@H](CC(C)C)NC(=O)[C@H](CC(=O)O)NC(=O)[C@H](CO)NC(=O)[C@@H](NC(=O)[C@H](Cc1ccccc1)NC(=O)[C@@H](NC(=O)CNC(=O)[C@H](CCC(N)=O)NC(=O)C(C)(C)NC(=O)[C@@H](N)Cc1c[nH]cn1)[C@@H](C)O)[C@@H](C)O)C(=O)N[C@@H](CCC(=O)O)C(=O)N[C@@H](CO)C(=O)N[C@@H](CCCCN)C(=O)N[C@@H](CCCNC(=N)N)C(=O)N[C@@H](C)C(=O)N[C@@H](CCCNC(=N)N)C(=O)N[C@@H](CCC(=O)O)C(=O)N[C@@H](Cc1ccccc1)C(=O)N[C@H](C(=O)N[C@@H](CCC(N)=O)C(=O)N[C@@H](Cc1c[nH]c2ccccc12)C(=O)N[C@@H](CC(C)C)C(=O)N[C@@H](CC(C)C)C(=O)N[C@@H](CCCCNC(=O)CNC(=O)[C@H](CO)NC(=O)[C@H](CCC(=O)O)NC(=O)CNC(=O)[C@H](CO)NC(=O)CC[C@H](NC(=O)CC[C@H](NC(=O)CCCCCCCCCCCCCCCCC(=O)O)C(=O)O)C(=O)O)C(=O)N[C@H](C(N)=O)[C@@H](C)O)C(C)C [Example 25, N^ε28-[2-[[(2S)-2-[[(2S)-4-carboxy-2-[[2-[[(2S)-2-[[(4S)-4-carboxy-4-[[(4S)-4-carboxy-4-(17-carboxyheptadecanoylamino)butanoyl]amino]butanoyl]amino]-3-hydroxypropanoyl]amino]acetyl]amino]butanoyl]amino]-3-hydroxypropanoyl]amino]acetyl]-[Aib2,Leu10,Glu15,Lys17,Arg20,Glu21,Leu27,Lys28]-Glucagon amide] (I: H-H[Aib]QGTFTSDLSKYLESKRAREFVQWLLKT-NH2 / II: {C18 diacid-γGlu-γGlu}-SGESG; amide I:28-II:C; N-terminus assumed)
